Source: patent publication US20130296311A1, “INHIBITORS OF HCV NS5A” (PRESIDIO PHARMACEUTICALS, INC., priority 2010, published 2013)

Tested on: HCV 1b_Huh-Luc/Neo-ET cell line persistently expressing a bicistronic genotype 1b replicon in Huh 7 cells
Experiment: HCV replicon assay (luciferase readout, 72 h)
Format: cell-based, HCV genotype 1b
Conditions: Hepatitis C virus, Huh-7, 72 h, read-out: Inhibition of HCV genotype 1b
Protocol: Biological activity of the compounds of the invention was determined using an HCV replicon assay. The HCV 1b_Huh-Luc/Neo-ET cell line persistently expressing a bicistronic genotype 1b replicon in Huh 7 cells was obtained from ReBLikon GMBH. This cell line was used to test compound inhibition using luciferase enzyme activity readout as a measurement of compound inhibition of replicon levels.
On Day 1 (the day after plating), each compound is added in triplicate to the cells. Plates incubated for 72 h prior to running the luciferase assay. Enzyme activity was measured using a Bright-Glo Kit (cat. number E2620) manufactured by Promega Corporation. The following equation was used to generate a percent control value for each compound.
% Control=(Average Compound Value/Average Control)*100
The EC50 value was determined using GraphPad Prism and the following equation:
Y=Bottom+(Top-Bottom)/(1+10̂((LogIC50−X)*HillSlope))
EC50 values of compounds are determined several times in the replicon assay.
Example compounds of the disclosed invention are illustrated in Tables 1-16 attached as appendices. The tables show inhibitory activity of many of the example compounds with respect to HCV 1b. […] The tables further provide mass spectrometry results for the synthesized example compounds.

Compound	EC50
COC(=O)N[C@H](Cc1ccccc1)C(=O)N1CCC[C@H]1c1ncc(-c2ccc(C#Cc3ccc(-c4cnc([C@@H]5CCCN5C(=O)[C@H](NC(=O)OC)c5ccccc5)[nH]4)cc3)cc2)[nH]1 [Compound 180]	< 1 nM
COC(=O)N[C@@H](C(=O)N1CCC[C@H]1c1ncc(-c2ccc(C#Cc3ccc(-c4cnc([C@@H]5CCCN5C(=O)Cc5cccnc5)[nH]4)cc3)cc2)[nH]1)c1ccccc1 [Compound 181]	< 1 nM
COC(=O)N[C@@H](C(=O)N1CCC[C@H]1c1ncc(-c2ccc(C#Cc3ccc(-c4cnc([C@@H]5CCCN5C(=O)C5CCN(C)CC5)[nH]4)cc3)cc2)[nH]1)c1ccccc1 [Compound 182]	< 1 nM
COC(=O)N[C@@H](C(=O)N1CCC[C@H]1c1ncc(-c2ccc(C#Cc3ccc(-c4cnc([C@@H]5CCCN5C(=O)c5cccnc5)[nH]4)cc3)cc2)[nH]1)c1ccccc1 [Compound 183]	< 1 nM
O=C([C@@H](c1ccccc1)N1CCOCC1)N1CCC[C@H]1c1ncc(-c2ccc(C#Cc3ccc(-c4cnc([C@@H]5CCCN5C(=O)[C@@H](c5ccccc5)N5CCOCC5)[nH]4)cc3)cc2)[nH]1 [Compound 184]	< 1 nM
COC(=O)N[C@@H](C(=O)N1CCC[C@H]1c1ncc(-c2ccc(C#Cc3ccc(-c4cnc([C@@H]5CCCN5C(=O)[C@@H](c5ccccc5)N5CCOCC5)[nH]4)cc3)cc2)[nH]1)c1ccccc1 [Compound 185]	< 1 nM
COC(=O)N[C@@H](C(=O)N1CCC[C@H]1c1ncc(-c2ccc(C#Cc3ccc(-c4cnc([C@@H]5CCCN5C(=O)[C@@H]5CCCO5)[nH]4)cc3)cc2)[nH]1)c1ccccc1 [Compound 186]	< 1 nM
COC(=O)N[C@@H](C(=O)N1CCC[C@H]1c1ncc(-c2ccc(C#Cc3ccc(-c4cnc([C@@H]5CCCN5C(=O)[C@H]5CCCN5C)[nH]4)cc3)cc2)[nH]1)c1ccccc1 [Compound 187]	< 1 nM
COC(=O)N[C@@H](C(=O)N1CCC[C@H]1c1ncc(-c2ccc(C#Cc3ccc(-c4cnc([C@@H]5CCCN5C(=O)[C@@H](c5ccccc5)N5CCCCC5)[nH]4)cc3)cc2)[nH]1)c1ccccc1 [Compound 188]	< 1 nM
CC(C)(C)OC(=O)N[C@@H](C(=O)N1CCC[C@H]1C(=O)NCc1ccc(C#Cc2ccc(-c3cnc([C@@H]4CCCN4C(=O)[C@H](NC(=O)OC(C)(C)C)c4ccccc4)[nH]3)cc2)cc1)c1ccccc1 [Compound 189]	< 1 nM
O=C(N[C@@H](C(=O)N1CCC[C@H]1C(=O)NCc1ccc(C#Cc2ccc(-c3cnc([C@@H]4CCCN4C(=O)[C@H](NC(=O)C4CC4)c4ccccc4)[nH]3)cc2)cc1)c1ccccc1)C1CC1 [Compound 190]	< 1 nM
C[C@H](NC(=O)[C@@H]1CCCN1C(=O)[C@H](NC(=O)C1CC1)c1ccccc1)c1ccc(C#Cc2ccc(-c3cnc([C@@H]4CCCN4C(=O)[C@H](NC(=O)C4CC4)c4ccccc4)[nH]3)cc2)cc1 [Compound 191]	< 1 nM
CC(C)(C)OC(=O)N[C@@H](C(=O)N1CCC[C@H]1CNC(=O)c1ccc(C#Cc2ccc(-c3cnc([C@@H]4CCCN4C(=O)[C@H](NC(=O)OC(C)(C)C)c4ccccc4)[nH]3)cc2)cc1)c1ccccc1 [Compound 192]	1 to 9.9 nM
O=C(NC[C@@H]1CCCN1C(=O)[C@H](NC(=O)C1CC1)c1ccccc1)c1ccc(C#Cc2ccc(-c3cnc([C@@H]4CCCN4C(=O)[C@H](NC(=O)C4CC4)c4ccccc4)[nH]3)cc2)cc1 [Compound 193]	< 1 nM
O=C([C@@H](c1ccccc1)N1CCCC1)N1CCC[C@H]1c1ncc(-c2ccc(C#Cc3ccc(-c4cnc([C@@H]5CCCN5C(=O)[C@@H](c5ccccc5)N5CCCC5)[nH]4)cc3)cc2)[nH]1 [Compound 194]	< 1 nM
COC(=O)N[C@@H](C(=O)N1CCC[C@H]1c1ncc(-c2ccc(C#Cc3ccc(-c4cnc([C@@H]5CCCN5C(=O)[C@H](NC(=O)[C@@H]5CCCO5)c5ccccc5)[nH]4)cc3)cc2)[nH]1)c1ccccc1 [Compound 195]	< 1 nM
COC(=O)N[C@@H](C(=O)N1CCC[C@H]1c1ncc(-c2ccc(C#Cc3ccc(-c4cnc([C@@H]5CCCN5C(=O)Nc5ccccc5)[nH]4)cc3)cc2)[nH]1)c1ccccc1 [Compound 196]	1 to 9.9 nM
COC(=O)N[C@@H](C(=O)N1CCC[C@H]1c1ncc(-c2ccc(C#Cc3ccc(-c4cnc([C@@H]5CCCN5C(=O)NCc5ccccc5)[nH]4)cc3)cc2)[nH]1)c1ccccc1 [Compound 197]	< 1 nM
COC(=O)N[C@@H](C(=O)N1CCC[C@H]1c1ncc(-c2ccc(C#Cc3ccc(-c4cnc([C@@H]5CCCN5C(=O)N5CCOCC5)[nH]4)cc3)cc2)[nH]1)c1ccccc1 [Compound 198]	< 1 nM

Compound	EC50
COC(=O)N[C@@H](C(=O)N1CCC[C@H]1c1ncc(-c2ccc(C#Cc3ccc(-c4cnc([C@@H]5CCCN5C(=O)OCc5ccccc5)[nH]4)cc3)cc2)[nH]1)c1ccccc1 [Compound 200]	< 1 nM
COC(=O)N[C@@H](C(=O)N1CCC[C@H]1c1ncc(-c2ccc(C#Cc3ccc(-c4cnc([C@@H]5CCCN5C(=O)[C@H](NC(=O)[C@H]5CCCO5)c5ccccc5)[nH]4)cc3)cc2)[nH]1)c1ccccc1 [Compound 201]	< 1 nM
COC(=O)N[C@@H](C(=O)N1CCC[C@H]1c1ncc(-c2ccc(C#Cc3ccc(-c4cnc([C@@H]5CCCN5C(=O)[C@@H]5CCCN5C)[nH]4)cc3)cc2)[nH]1)c1ccccc1 [Compound 202]	< 1 nM
COC(=O)N[C@@H](C(=O)N1CCC[C@H]1c1ncc(-c2ccc(C#Cc3ccc(-c4cnc([C@@H]5CCCN5C(=O)[C@H](NC(=O)C5CCCN5C)c5ccccc5)[nH]4)cc3)cc2)[nH]1)c1ccccc1 (some centres unmarked) [Compound 203]	< 1 nM
COC(=O)N[C@@H](C(=O)N1CCC[C@H]1c1ncc(-c2ccc(C#Cc3ccc(-c4cnc([C@@H]5CCCN5C(=O)[C@H](NC(=O)[C@H]5CCCN5C)c5ccccc5)[nH]4)cc3)cc2)[nH]1)c1ccccc1 [Compound 204]	< 1 nM
O=C([C@@H](c1ccccc1)N1CCCCC1)N1CCC[C@H]1c1ncc(-c2ccc(C#Cc3ccc(-c4cnc([C@@H]5CCCN5C(=O)[C@@H](c5ccccc5)N5CCCCC5)[nH]4)cc3)cc2)[nH]1 [Compound 205]	< 1 nM
COC(=O)N[C@@H](C(=O)N1CCC[C@H]1c1ncc(-c2ccc(C#Cc3ccc(-c4cnc([C@@H]5CCCN5C(=O)[C@H](NC(=O)[C@@H]5CCCN5)c5ccccc5)[nH]4)cc3)cc2)[nH]1)c1ccccc1 [Compound 206]	< 1 nM
COC(=O)N[C@@H](C(=O)N1CCC[C@H]1c1ncc(-c2ccc(C#Cc3ccc(-c4cnc([C@@H]5CCCN5C(=O)[C@H](NC(=O)[C@H]5CCCN5)c5ccccc5)[nH]4)cc3)cc2)[nH]1)c1ccccc1 [Compound 207]	< 1 nM
O=C(N[C@@H](C(=O)N1CCC[C@H]1c1ncc(-c2ccc(C#Cc3ccc(-c4cnc([C@@H]5CCCN5C(=O)[C@@H](c5ccccc5)N5CCCCC5)[nH]4)cc3)cc2)[nH]1)c1ccccc1)C1CC1 [Compound 208]	< 1 nM
O=C(N[C@@H](C(=O)N1CCC[C@H]1c1ncc(-c2ccc(C#Cc3ccc(-c4cnc([C@@H]5CCCN5C(=O)[C@@H](c5ccccc5)N5CCCCC5)[nH]4)cc3)cc2)[nH]1)c1ccccc1)N1CCOCC1 [Compound 209]	< 1 nM
CC(C)(C)OC(=O)N[C@@H](C(=O)N1CCC[C@H]1c1cc(-c2ccc(C#Cc3ccc(-c4cnc([C@@H]5CCCN5C(=O)[C@H](NC(=O)OC(C)(C)C)c5ccccc5)[nH]4)cc3)cc2)n[nH]1)c1ccccc1 [Compound 210]	< 1 nM
COC(=O)N[C@@H](C(=O)N1CCC[C@H]1CNC(=O)c1ccc(C#Cc2ccc(-c3cnc([C@@H]4CCCN4C(=O)[C@H](NC(=O)OC)c4ccccc4)[nH]3)cc2)cc1)c1ccccc1 [Compound 211]	< 1 nM
O=C(N[C@@H](C(=O)N1CCC[C@H]1c1cc(-c2ccc(C#Cc3ccc(-c4cnc([C@@H]5CCCN5C(=O)[C@H](NC(=O)C5CC5)c5ccccc5)[nH]4)cc3)cc2)n[nH]1)c1ccccc1)C1CC1 [Compound 212]	< 1 nM
CN1CCN(C(=O)N[C@@H](C(=O)N2CCC[C@H]2c2cc(-c3ccc(C#Cc4ccc(-c5cnc([C@@H]6CCCN6C(=O)[C@H](NC(=O)N6CCN(C)CC6)c6ccccc6)[nH]5)cc4)cc3)n[nH]2)c2ccccc2)CC1 [Compound 213]	< 1 nM
O=C(N[C@@H](C(=O)N1CCC[C@H]1c1cc(-c2ccc(C#Cc3ccc(-c4cnc([C@@H]5CCCN5C(=O)[C@H](NC(=O)[C@@H]5CCCO5)c5ccccc5)[nH]4)cc3)cc2)n[nH]1)c1ccccc1)[C@@H]1CCCO1 [Compound 214]	< 1 nM
CN(C)[C@@H](C(=O)N1CCC[C@H]1c1ncc(-c2ccc(C#Cc3ccc(-c4cnc([C@@H]5CCCN5C(=O)[C@H](NC(=O)C5CC5)c5ccccc5)[nH]4)cc3)cc2)[nH]1)c1ccccc1 [Compound 215]	< 1 nM
CN1CCC[C@@H]1C(=O)N[C@@H](C(=O)N1CCC[C@H]1c1ncc(-c2ccc(C#Cc3ccc(-c4cnc([C@@H]5CCCN5C(=O)[C@H](NC(=O)C5CC5)c5ccccc5)[nH]4)cc3)cc2)[nH]1)c1ccccc1 [Compound 216]	< 1 nM
O=C(N[C@@H](C(=O)N1CCC[C@H]1c1ncc(-c2ccc(C#Cc3ccc(-c4cnc([C@@H]5CCCN5C(=O)[C@@H](c5ccccc5)N5CCCC5)[nH]4)cc3)cc2)[nH]1)c1ccccc1)C1CC1 [Compound 217]	< 1 nM
COC(=O)N[C@@H](C(=O)N1CCC[C@H]1c1ncc(-c2ccc(C#Cc3ccc(-c4cnc([C@@H]5CCCN5C(=O)[C@H](NC(=O)C5CC5)c5ccccc5)[nH]4)cc3)cc2)[nH]1)c1ccccc1 [Compound 218]	< 1 nM
